Reference: patent US7462600B2, “Macrolides” (Pfizer Inc, priority 2004, dated 2008)
In brackets after ≈: the same amount, converted by molar mass.

How the values were obtained:
Assay type in all cases: cell-based
[1] = system: Streptococcus pyogenes 1079; experiment: MIC, microtiter broth dilution (NCCLS M100-S14), S. pyogenes 1079 (ermB); settings: Streptococcus pyogenes 1079
Procedure, shortened: (§1)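 NCCLS M100-S14 rules govern how the microdilution MICs are interpreted. Each compound starts as a 40 mg/ml solution in DMSO before dilution.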

[2] = system: Streptococcus pneumoniae 1016; experiment: MIC, microtiter broth dilution (NCCLS M100-S14), S. pneumoniae 1016 (susceptible); settings: Streptococcus pneumoniae 1016
Procedure, shortened: as §1

[3] = system: Streptococcus pneumoniae 1095; settings: Streptococcus pneumoniae 1095; microtiter broth dilution
Procedure, shortened: as §1

[4] = system: Streptococcus pneumoniae 1175; settings: Streptococcus pneumoniae 1175; microtiter broth dilution
Procedure, shortened: as §1

[5] = system: Haemophilus influenzae 1218; experiment: MIC, microtiter broth dilution (NCCLS M100-S14), H. influenzae 1218 (susceptible); settings: Haemophilus influenzae 1218
Procedure, shortened: as §1

Row | SMILES | MIC S. pyogenes 1079 [1] | MIC S. pneumo. 1016 [2] | MIC S. pneumo. 1095 [3] | MIC S. pneumo. 1175 [4] | MIC H. influenzae 1218 [5]
1 | CCC1OC(=O)C(C)C(=O)C(C)C(OC2OC(C)CC(N(C)C)C2O)C(C)(OC)CC(C)C(=O)C(C)C2N(C3CN(S(=O)(=O)c4ccc5sc(C)nc5c4)C3)C(=O)OC12C (centres unmarked) [Example 3.90, 3-descladinosyl-11,12-dideoxy-6-O-methyl-3-oxo-12,11-(oxycarbonyl-(1-(2-methylbenzo[d]thiazole-5-sulfonyl)-azetidin-3-yl)-imino)-erythromycin A] | 8 µg/mL (≈ 9.1 µM) | <0.06 µg/mL | <0.06 µg/mL | <0.06 µg/mL | 0.25 µg/mL (≈ 0.284 µM)
2 | CCC1OC(=O)C(C)C(=O)C(C)C(OC2OC(C)CC(N(C)C)C2O)C(C)(OC)CC(C)C(=O)C(C)C2N(C3CN(S(=O)(=O)c4ccc5ccccc5c4)C3)C(=O)OC12C (centres unmarked) [Example 3.91, 3-descladinosyl-11,12-dideoxy-4-O-methyl-3-oxo-12,11-(oxycarbonyl-(1-(naphthalene-2-sulfonyl)-azetidin-3-yl)-imino)-erythromycin A] | 4 µg/mL (≈ 4.66 µM) | <0.06 µg/mL | <0.06 µg/mL | <0.06 µg/mL | 0.12 µg/mL (≈ 0.14 µM)
3 | CCC1OC(=O)C(C)C(=O)C(C)C(OC2OC(C)CC(N(C)C)C2O)C(C)(OC)CC(C)C(=O)C(C)C2N(C3CN(S(=O)(=O)c4cccc5cnncc45)C3)C(=O)OC12C (centres unmarked) [Example 3.92, 3-descladinosyl-11,12-dideoxy-6-O-methyl-3-oxo-12,11-(oxycarbonyl-(1-(phthalazine-5-sulfonyl)-azetidin-3-yl)-imino)-erythromycin A] | 4 µg/mL (≈ 4.65 µM) | <0.06 µg/mL | <0.06 µg/mL | <0.06 µg/mL | 1 µg/mL (≈ 1.16 µM)
4 | CCC1OC(=O)C(C)C(=O)C(C)C(OC2OC(C)CC(N(C)C)C2O)C(C)(OC)CC(C)C(=O)C(C)C2N(C3CN(S(=O)(=O)c4cccc5nccnc45)C3)C(=O)OC12C (centres unmarked) [Example 3.93, 3-descladinosyl-11,12-dideoxy-4-O-methyl-3-oxo-12,11-(oxycarbonyl-(1-(quinoxaline-5-sulfonyl)-azetidin-3-yl)-imino)-erythromycin A] | 1 µg/mL (≈ 1.16 µM) | <0.06 µg/mL | <0.06 µg/mL | <0.06 µg/mL | 0.25 µg/mL (≈ 0.291 µM)
5 | CCC1OC(=O)C(C)C(=O)C(C)C(OC2OC(C)CC(N(C)C)C2O)C(C)(OC)CC(C)C(=O)C(C)C2N(C3CN(S(=O)(=O)c4ccc5c(cnn5C)c4)C3)C(=O)OC12C (centres unmarked) [Example 3.94, 3-descladinosyl-11,12-dideoxy-6-O-methyl-3-oxo-12,11-(oxycarbonyl-(1-(1-methyl-1H-indazole-5-sulfonyl)-azetidin-3-yl)-imino)erythromycin A] | 0.25 µg/mL (≈ 0.29 µM) | <0.06 µg/mL | 0.12 µg/mL (≈ 0.139 µM) | <0.06 µg/mL | 0.25 µg/mL (≈ 0.29 µM)
6 | CCC1OC(=O)C(C)C(=O)C(C)C(OC2OC(C)CC(N(C)C)C2O)C(C)(OC)CC(C)C(=O)C(C)C2N(C3CN(S(=O)(=O)c4ccc5c(c4)CS(=O)(=O)C5)C3)C(=O)OC12C (centres unmarked) [Example 3.95] | 0.12 µg/mL (≈ 0.134 µM) | <0.06 µg/mL | <0.06 µg/mL | <0.06 µg/mL | 0.5 µg/mL (≈ 0.557 µM)
7 | CCC1OC(=O)C(C)C(=O)C(C)C(OC2OC(C)CC(N(C)C)C2O)C(C)(OC)CC(C)C(=O)C(C)C2N(C3CN(S(=O)(=O)c4ccc5nn(C)cc5c4)C3)C(=O)OC12C (centres unmarked) [Example 3.96, 3-descladinosyl-11,12-dideoxy-6-O-methyl-3-oxo-12,11-(oxycarbonyl-(1-(2-methyl-2H-indazole-5-sulfonyl)-azetidin-3-yl)-imino)erythromycin A] | 1 µg/mL (≈ 1.16 µM) | <0.06 µg/mL | 0.12 µg/mL (≈ 0.139 µM) | 2 µg/mL (≈ 2.32 µM) | 1 µg/mL (≈ 1.16 µM)
8 | CCC1OC(=O)C(C)(F)C(=O)C(C)C(OC2OC(C)CC(N(C)C)C2O)C(C)(OC)CC(C)C(=O)C(C)C2N(C3CN(S(=O)(=O)c4cccc5nccnc45)C3)C(=O)OC12C (centres unmarked) [Example 3.98, 3-descladinosyl-11,12-dideoxy-2-fluoro-6-O-methyl-3-oxo-12,11-(oxycarbonyl-(1-(quinoxaline-5-sulfonyl)-azetidin-3-yl)-imino)-erythromycin A] | 0.25 µg/mL (≈ 0.285 µM) | <0.063 µg/mL | <0.063 µg/mL | <0.063 µg/mL | 0.25 µg/mL (≈ 0.285 µM)
9 | CCOc1ccc(S(=O)(=O)N2CC(N3C(=O)OC4(C)C(CC)OC(=O)C(C)C(=O)C(C)C(OC5OC(C)CC(N(C)C)C5O)C(C)(OC)CC(C)C(=O)C(C)C34)C2)cc1C#N (centres unmarked) [Example 3.99, 3-descladinosyl-11,12-dideoxy-6-O-methyl-3-oxo-12,11-(oxycarbonyl-(1-(3-cyano-4-ethoxybenzene-1-sulfonyl)-azetidin-3-yl)-imino)-erythromycin A] | 0.25 µg/mL (≈ 0.285 µM) | <0.063 µg/mL | <0.063 µg/mL | <0.063 µg/mL | 1.41 µg/mL (≈ 1.61 µM)
10 | CCC1OC(=O)C(C)C(=O)C(C)C(OC2OC(C)CC(N(C)C)C2O)C(C)(OC)CC(C)C(=O)C(C)C2N(C3CN(S(=O)(=O)c4cccc5ncccc45)C3)C(=O)OC12C (centres unmarked) [Example 3.100, 3-descladinosyl-11,12-dideoxy-6-O-methyl-3-oxo-12,11-(oxycarbonyl-(1-(quinoline-5-sulfonyl)-azetidin-3-yl)-imino)-erythromycin A] | 0.125 µg/mL (≈ 0.146 µM) | <0.063 µg/mL | <0.063 µg/mL | <0.063 µg/mL | 0.5 µg/mL (≈ 0.582 µM)
11 | CCC1OC(=O)C(C)C(=O)C(C)C(OC2OC(C)CC(N(C)C)C2O)C(C)(OC)CC(C)C(=O)C(C)C2N(C3CN(S(=O)(=O)c4ccc(OC)c5ncccc45)C3)C(=O)OC12C (centres unmarked) [Example 3.101, 3-descladinosyl-11,12-dideoxy-6-O-methyl-3-oxo-12,11-(oxycarbonyl-(1-(8-methoxyquinoline-5-sulfonyl)-azetidin-3-yl)-imino)-erythromycin A] | <0.063 µg/mL | <0.063 µg/mL | <0.063 µg/mL | <0.063 µg/mL | 0.125 µg/mL (≈ 0.141 µM)
12 | CCOc1ccc(S(=O)(=O)N2CC(N3C(=O)OC4(C)C(CC)OC(=O)C(C)C(=O)C(C)C(OC5OC(C)CC(N(C)C)C5O)C(C)(OC)CC(C)C(=O)C(C)C34)C2)c2cccnc12 (centres unmarked) [Example 3.102, 3-descladinosyl-11,12-dideoxy-6-O-methyl-3-oxo-12,11-(oxycarbonyl-(1-(8-ethoxyquinoline-5-sulfonyl)-azetidin-3-yl)-imino)erythromycin A] | <0.063 µg/mL | <0.063 µg/mL | <0.063 µg/mL | <0.063 µg/mL | 1 µg/mL (≈ 1.11 µM)
13 | CCOc1ccc(S(=O)(=O)N2CC(N3C(=O)OC4(C)C(CC)OC(=O)C(C)(F)C(=O)C(C)C(OC5OC(C)CC(N(C)C)C5O)C(C)(OC)CC(C)C(=O)C(C)C34)C2)cc1C#N (centres unmarked) [Example 3.103, 3-descladinosyl-11,12-dideoxy-2-fluoro-6-O-methyl-3-oxo-12,11-(oxycarbonyl-(1-(3-cyano-4-ethoxybenzene-1-sulfonyl)-azetidin-3-yl)-imino)-erythromycin A] | 0.5 µg/mL (≈ 0.559 µM) | <0.063 µg/mL | <0.063 µg/mL | <0.063 µg/mL | 2 µg/mL (≈ 2.23 µM)
14 | CCC1OC(=O)C(C)C(=O)C(C)C(OC2OC(C)CC(N(C)C)C2O)C(C)(OC)CC(C)C(=O)C(C)C2N(C3CN(S(=O)(=O)c4ccc5cnsc5c4)C3)C(=O)OC12C (centres unmarked) [Example 3.104, 3-descladinosyl-11,12-dideoxy-6-O-methyl-3-oxo-12,11-(oxycarbonyl-(1-(benzo[d]isothiazole-6-sulfonyl)-azetidin-3-yl)-imino)-erythromycin A] | 1 µg/mL (≈ 1.16 µM) | <0.063 µg/mL | <0.063 µg/mL | <0.063 µg/mL | <0.063 µg/mL
15 | CCOc1ccc(S(=O)(=O)N2CC(N3C(=O)OC4(C)C(CC)OC(=O)C(C)C(=O)C(C)C(OC5OC(C)CC(N(C)C)C5O)C(C)(OC)CC(C)C(=O)C(C)C34)C2)cc1OC (centres unmarked) [Example 3.105, 3-descladinosyl-11,12-dideoxy-6-O-methyl-3-oxo-12,11-(oxycarbonyl-(1-(4-ethoxy-3-methoxybenzene-1-sulfonyl)-azetidin-3-yl)-imino)-erythromycin A] | 1 µg/mL (≈ 1.13 µM) | <0.063 µg/mL | <0.063 µg/mL | <0.063 µg/mL | 0.25 µg/mL (≈ 0.283 µM)
16 | CCC1OC(=O)C(C)C(=O)C(C)C(OC2OC(C)CC(N(C)C)C2O)C(C)(OC)CC(C)C(=O)C(C)C2N(C3CN(S(=O)(=O)c4cc(Cl)ccc4OC)C3)C(=O)OC12C (centres unmarked) [Example 3.106, 3-descladinosyl-11,12-dideoxy-6-O-methyl-3-oxo-12,11-(oxycarbonyl-(1-(5-chloro-2-methoxybenzene-1-sulfonyl)-azetidin-3-yl)-imino)-erythromycin A] | 0.5 µg/mL (≈ 0.573 µM) | <0.063 µg/mL | <0.063 µg/mL | <0.063 µg/mL | 0.5 µg/mL (≈ 0.573 µM)
